# Assay results reported in patent US20250327793A1, “METHODS OF IDENTIFYING COMPOUNDS THAT MODULATE LAUNDRY MALODOR, MOLDY MALODOR, OR SWEAT MALODOR” (Firmenich SA, priority 2017, published 2025).
# How the values were obtained:
# Olfr96 [1] = assay: Cell-based OR activation assay (cAMP accumulation); parameters: species or system mouse; settings: FIG. 5; OR-dependent accumulation of cAMP
# Olfr339 [2] = assay: Cell-based OR activation assay (cAMP accumulation); parameters: species or system mouse; settings: FIG. 5; OR-dependent accumulation of cAMP
# Olfr1487 [3] = assay: Cell-based OR activation assay (cAMP accumulation); parameters: species or system mouse; settings: FIG. 5; OR-dependent accumulation of cAMP
# Olfr1322 [4] = assay: Cell-based OR activation assay (cAMP accumulation); parameters: species or system mouse; settings: FIG. 5; OR-dependent accumulation of cAMP
# OR11A1 [5] = molecular target: T1, OR11A1 (Homo sapiens, UniProt Q9GZK7); assay: Cell-based OR activation assay (cAMP accumulation); parameters: expressed in transfected cells; host or cells: HEK293T expressing human Golf; settings: FIG. 5; OR-dependent accumulation of cAMP
# T1 sequence (Q9GZK7 whole entry): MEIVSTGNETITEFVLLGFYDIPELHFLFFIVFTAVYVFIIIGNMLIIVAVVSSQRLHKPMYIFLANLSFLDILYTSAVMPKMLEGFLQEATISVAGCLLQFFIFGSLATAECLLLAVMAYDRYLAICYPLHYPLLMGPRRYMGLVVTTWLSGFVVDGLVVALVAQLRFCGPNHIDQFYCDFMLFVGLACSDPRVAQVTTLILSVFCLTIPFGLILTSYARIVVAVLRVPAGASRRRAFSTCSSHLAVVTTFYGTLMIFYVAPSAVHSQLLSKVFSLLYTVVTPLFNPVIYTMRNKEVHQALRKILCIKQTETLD
# OR51I2 = molecular target: T2, OR51I2 (Homo sapiens, UniProt Q9H344); assay: 3-methyl-2-hexenoic acid concentration-dependent activation of OR51I2: OR-dependent cAMP accumulation in a cell-based assay (functional dose-response); settings: agonist, human OR51I2 (SEQ ID NO: 20), HEK293T cells expressing Golf, FIG. 8
# T2 construct: expressed in transfected cells; host or cells: HEK293T
# T2 sequence (Q9H344 whole entry): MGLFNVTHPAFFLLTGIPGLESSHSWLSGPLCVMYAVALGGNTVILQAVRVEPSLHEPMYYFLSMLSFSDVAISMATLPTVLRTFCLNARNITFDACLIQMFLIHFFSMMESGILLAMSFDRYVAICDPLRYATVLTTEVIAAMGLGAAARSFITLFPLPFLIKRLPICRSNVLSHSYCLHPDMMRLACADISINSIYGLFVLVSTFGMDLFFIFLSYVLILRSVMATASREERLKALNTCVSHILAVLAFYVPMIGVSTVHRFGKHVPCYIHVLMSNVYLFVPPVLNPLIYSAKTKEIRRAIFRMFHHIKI
# Text: (§1) The detection method pertains to OR-dependent accumulation of cAMP in said cells, as a result of OR activation by 3-methyl-2-hexenoic acid.
# (§2) In a further embodiment, to complete the deorphanization process, the candidate OR genes are further expressed in vitro for confirmation of activity against the compounds used to isolate the olfactory sensory neurons and other structurally-related compounds of interest. […]
# (§3) In the second method, a panel of odorant receptors comprising the 400 putatively functional human receptor repertoire were transfected into a cultured human HEK293T cell line described in WO2014/210585 expressing Human olfactory G-protein alpha subunit (Golf—SEQ. ID No. 49) and coupled to a cyclicAMP reporter. Said panel of in vitro odorant receptors were exposed to MCSs and the level of cAMP signal was measured for each receptor. […]
# Olfr641 [6] = molecular target: Olfr641 (Mus musculus, UniProt Q8VGX6); assay: 3-methyl-2-hexenoic acid concentration-dependent activation of Olfr641: OR-dependent cAMP accumulation in a cell-based assay (functional dose-response); settings: agonist, mouse Olfr641 (SEQ ID NO: 34), N-terminal FLAG/Rho/Lucy tags, HEK 293T cells, Gαolf, FIG. 8
# Olfr641 (Mus musculus, UniProt Q8VGX6), sequence (Q8VGX6 1-312): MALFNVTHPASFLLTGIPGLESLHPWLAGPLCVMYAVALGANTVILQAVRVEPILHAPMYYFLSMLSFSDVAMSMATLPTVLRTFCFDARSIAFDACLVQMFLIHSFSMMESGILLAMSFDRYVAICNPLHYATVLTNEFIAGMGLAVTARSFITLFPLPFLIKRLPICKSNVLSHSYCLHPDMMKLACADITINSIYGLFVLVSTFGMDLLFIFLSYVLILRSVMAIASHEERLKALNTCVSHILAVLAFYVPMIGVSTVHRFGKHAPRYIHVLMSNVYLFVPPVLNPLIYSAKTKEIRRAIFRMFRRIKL
# Text: as §1, §2
# (§4) Neurons that were activated by DMTS were further isolated for full transcriptome analysis to identify the responsive odorant receptor. […] Amplified cDNA was then used to generate an Illumina cDNA library for Next-Generation-Sequencing and the generation of 100 base pair single read sequences. […]
# Olfr263 [7] = molecular target: Olfr263 (Mus musculus, UniProt Q7TQT8); assay: Concentration-dependent activation of Olfr263: OR-dependent cAMP accumulation in a cell-based assay (functional dose-response); settings: agonist 3-methyl-2-hexenoic acid, mouse Olfr263 (SEQ ID NO: 22), N-terminal FLAG/Rho/Lucy tags, HEK 293T cells, Gαolf, FIG. 8
# Olfr263 (Mus musculus, UniProt Q7TQT8), sequence (Q7TQT8 1-317): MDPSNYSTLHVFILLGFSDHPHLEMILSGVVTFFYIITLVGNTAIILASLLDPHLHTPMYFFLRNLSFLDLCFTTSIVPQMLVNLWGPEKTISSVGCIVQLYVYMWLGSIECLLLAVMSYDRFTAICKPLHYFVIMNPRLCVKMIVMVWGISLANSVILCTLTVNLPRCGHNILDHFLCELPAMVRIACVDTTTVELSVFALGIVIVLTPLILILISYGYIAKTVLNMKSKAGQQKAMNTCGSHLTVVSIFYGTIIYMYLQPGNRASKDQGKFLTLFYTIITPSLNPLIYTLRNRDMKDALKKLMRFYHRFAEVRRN
# Text: (§5) The detection method pertains to OR-dependent accumulation of cAMP in said cells, as a result of OR activation by transpirol.
# as §1, §2, §4
# Olfr263 [8] = assay: Cell-based OR activation assay (cAMP accumulation); parameters: species or system mouse; settings: FIG. 7 and 8; OR-dependent accumulation of cAMP
# Text: as §5, §1
# (§6) In a further embodiment, to complete the deorphanization process, the candidate OR genes are further expressed in vitro for confirmation of activity against the compounds used to isolate the olfactory sensory neurons and other structurally-related compounds of interest. The mouse receptors identified from isolated olfactory neurons that respond to geonol, DMTS, 1-octen-3-ol, butyric acid, 3-methyl-2-hexenoic acid, 3-hydroxy-3-methyl-hexanoic acid or transpirol are modified at their N-terminus with short polypeptide sequences (e.g., FLAG® (SEQ ID NO: 48), Rho (SEQ ID NO: 50; 20 first amino acids of the bovine rhodopsin receptor), and/or Lucy (SEQ ID NO: 52; cleavable leucine-rich signal peptide sequence) tags), transiently expressed in HEK 293T cells, and stimulated separately with geonol, DMTS, 1-octen-3-ol, butyric acid, 3-methyl-2-hexenoic acid, 3-hydroxy-3-methyl-hexanoic acid or transpirol to confirm their identity as bona fide geonol, dimethyl trisulfide (DMTS), 1-octen-3-ol, butyric acid, 3-methyl-2-hexenoic acid, 3-hydroxy-3-methyl-hexanoic acid or transpirol receptors. […]
# OR5112 = molecular target: T3, OR5112 (Homo sapiens, UniProt Q9H344); assay: Cell-based OR activation assay (cAMP accumulation); settings: FIG. 8; OR-dependent accumulation of cAMP
# T3 construct: expressed in transfected cells; host or cells: HEK293T expressing human Golf
# T3 sequence (Q9H344 whole entry): as the sequence (Q9H344 whole entry) above
# Text: as §1, §2, §3
# Olfr641 [9] = assay: Cell-based OR activation assay (cAMP accumulation); parameters: species or system mouse; settings: FIG. 8; OR-dependent accumulation of cAMP
# Text: as §1
# as §6, with “receptors. In a further embodiment, an RTP1 gene can also be expressed in the cell lines whether through activation of the endogenous RTP1 gene or through transformation.” for “receptors.”
# OR2W1 [10] = molecular target: T4, OR2W1 (Homo sapiens, UniProt Q9Y3N9, M81V); assay: Concentration-dependent activation of OR2W1: OR-dependent cAMP accumulation in a cell-based assay (functional dose-response); parameters: expressed in transfected cells; host or cells: HEK293T; settings: agonist 3-methyl-2-hexenoic acid, human OR2W1 (SEQ ID NO: 2), HEK293T cells expressing Golf, FIG. 8
# T4 sequence (Q9Y3N9 1-320 M81V): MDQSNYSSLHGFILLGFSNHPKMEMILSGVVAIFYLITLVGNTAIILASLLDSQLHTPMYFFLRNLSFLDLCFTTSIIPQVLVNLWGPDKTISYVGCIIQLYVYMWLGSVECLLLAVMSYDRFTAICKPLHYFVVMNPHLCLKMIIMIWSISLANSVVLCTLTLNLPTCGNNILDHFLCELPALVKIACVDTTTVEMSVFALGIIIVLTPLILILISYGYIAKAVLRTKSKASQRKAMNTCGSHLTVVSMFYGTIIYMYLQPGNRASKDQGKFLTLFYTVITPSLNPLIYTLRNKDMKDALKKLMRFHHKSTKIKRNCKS
# Text: as §5, §1, §2, §3
# OR2W1 [11] = molecular target: T4, OR2W1; assay: Cell-based OR activation assay (cAMP accumulation); parameters: expressed in transfected cells; host or cells: HEK293T expressing human Golf; settings: FIG. 7 and 8; OR-dependent accumulation of cAMP
# Text: as §5, §1, §2, §3
# Olfr46 = assay: Cell-based OR activation assay (cAMP accumulation); parameters: species or system mouse; settings: FIG. 7; OR-dependent accumulation of cAMP
# Text: as §5
# as §6, with “receptors. In a further embodiment, an RTP1 gene can also be expressed in the cell lines whether through activation of the endogenous RTP1 gene or through transformation.” for “receptors.”
# Olfr93 = assay: Cell-based OR activation assay (cAMP accumulation); parameters: species or system mouse; settings: FIG. 6; OR-dependent accumulation of cAMP
# Olfr398 = assay: Cell-based OR activation assay (cAMP accumulation); parameters: species or system mouse; settings: FIG. 6; OR-dependent accumulation of cAMP
# Olfr120 = assay: Cell-based OR activation assay (cAMP accumulation); parameters: species or system mouse; settings: FIG. 6; OR-dependent accumulation of cAMP
# Olfr1364 = assay: Cell-based OR activation assay (cAMP accumulation); parameters: species or system mouse; settings: FIG. 6; OR-dependent accumulation of cAMP
# [12] = tested on: T5, OR11A1 or OR2M3 olfactory receptor; assay: Geonol olfactory receptor antagonist cell-based inhibitory dose-response assay; parameters: species or system human; settings: Table 2; geonol induced receptor activity, geonol at EC50
# T5 construct: fused on or other part: Possibly N-terminal FLAG, Rho and/or Lucy tags
# human sensory panel = assay: Sensory evaluation of geonol earthy/moss odor in binary mixtures with antagonists; assay type: in vivo; settings: percentage of geonol malodor (earthy/moss odor) remaining in binary iso-intense mixture vs REF; * = statistically different from geonol alone
# Text: Sensory Evaluation: Five 16 oz glass jars containing either REF (geonol only), geonol only control, antagonist only, mixture of geonol and isointense antagonist, or mixture of geonol and low intensity antagonist were presented to the panelists (last four samples were randomized across panelists). The panelists were asked to familiarize themselves with the earthy/moss odor quality from the REF jar first, then rate the pleasantness, earthy/moss odor intensity and overall odor intensity of the next four samples on a 0-10 linear scale. The inter-stimulus interval between the samples was two minutes to avoid adaptation.
# [13] = tested on: OR2W1 or OR1A1 olfactory receptor; assay: 1-octen-3-ol olfactory receptor antagonist cell-based inhibitory dose-response assay; settings: Table 3
# Text: Each cell line was screened with a volatile compound library for their inhibitory properties and potential 1-octen-3-ol smell inhibition.
# Single concentration monitoring of the 1-octen-3-ol induced cell activity in the presence or absence of a test compound allowed for the identification of compounds with a putative suppression or inhibitory effect.
# Olfr96 [14] = molecular target: Olfr96 (Mus musculus, UniProt Q0VBG2); assay: Geonol concentration-dependent activation of Olfr96: OR-dependent cAMP accumulation in a cell-based assay (functional dose-response); settings: agonist, mouse Olfr96 (SEQ ID NO: 28), N-terminal FLAG/Rho/Lucy tags, HEK 293T cells, Gαolf, FIG. 5
# Olfr96 (Mus musculus, UniProt Q0VBG2), sequence (Q0VBG2 1-313): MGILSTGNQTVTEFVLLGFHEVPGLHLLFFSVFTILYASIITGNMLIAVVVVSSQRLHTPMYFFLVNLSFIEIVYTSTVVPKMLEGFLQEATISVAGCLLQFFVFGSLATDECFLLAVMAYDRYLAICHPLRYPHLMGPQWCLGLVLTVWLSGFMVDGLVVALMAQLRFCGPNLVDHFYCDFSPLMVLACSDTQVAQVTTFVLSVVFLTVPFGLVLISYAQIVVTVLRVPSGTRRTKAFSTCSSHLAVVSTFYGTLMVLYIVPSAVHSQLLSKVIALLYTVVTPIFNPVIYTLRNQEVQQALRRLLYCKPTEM
# Text: (§7) The detection method pertains to OR-dependent accumulation of cAMP in said cells, as a result of OR activation by geonol.
# as §2, §4
# Olfr339 [15] = molecular target: Olfr339 (Mus musculus, UniProt Q8VGK8); assay: Geonol concentration-dependent activation of Olfr339: OR-dependent cAMP accumulation in a cell-based assay (functional dose-response); settings: agonist, mouse Olfr339 (SEQ ID NO: 44), N-terminal FLAG/Rho/Lucy tags, HEK 293T cells, Gαolf, FIG. 5
# Olfr339 (Mus musculus, UniProt Q8VGK8), sequence (Q8VGK8 1-309): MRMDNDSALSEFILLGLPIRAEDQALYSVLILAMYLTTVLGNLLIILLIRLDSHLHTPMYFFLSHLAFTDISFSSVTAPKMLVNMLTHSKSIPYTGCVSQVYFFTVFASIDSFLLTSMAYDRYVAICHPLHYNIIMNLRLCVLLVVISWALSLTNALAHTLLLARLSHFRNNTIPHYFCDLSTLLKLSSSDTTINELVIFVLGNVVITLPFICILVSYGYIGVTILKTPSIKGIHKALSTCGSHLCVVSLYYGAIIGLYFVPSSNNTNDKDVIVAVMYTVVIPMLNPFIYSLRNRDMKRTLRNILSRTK
# Text: as §7, §2, §4
# Olfr1487 [16] = molecular target: Olfr1487 (Mus musculus, UniProt Q8VFQ6); assay: Geonol concentration-dependent activation of Olfr1487: OR-dependent cAMP accumulation in a cell-based assay (functional dose-response); settings: agonist, mouse Olfr1487 (SEQ ID NO: 42), N-terminal FLAG/Rho/Lucy tags, HEK 293T cells, Gαolf, FIG. 5
# Olfr1487 (Mus musculus, UniProt Q8VFQ6), sequence (Q8VFQ6 1-315): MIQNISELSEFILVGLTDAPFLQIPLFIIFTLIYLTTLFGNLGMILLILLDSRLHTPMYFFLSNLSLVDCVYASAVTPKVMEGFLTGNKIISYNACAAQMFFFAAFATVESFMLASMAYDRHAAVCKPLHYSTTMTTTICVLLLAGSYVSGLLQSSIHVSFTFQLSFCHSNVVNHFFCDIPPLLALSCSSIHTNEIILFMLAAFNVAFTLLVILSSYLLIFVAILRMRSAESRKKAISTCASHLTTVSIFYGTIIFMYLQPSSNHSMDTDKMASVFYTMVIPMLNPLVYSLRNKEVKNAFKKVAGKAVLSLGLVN
# Text: as §7, §2, §4
# Olfr1322 [17] = molecular target: Olfr1322 (Mus musculus, UniProt Q7TQW3); assay: Geonol concentration-dependent activation of Olfr1322: OR-dependent cAMP accumulation in a cell-based assay (functional dose-response); settings: agonist, mouse Olfr1322 (SEQ ID NO: 73), N-terminal FLAG/Rho/Lucy tags, HEK 293T cells, Gαolf, FIG. 5
# Olfr1322 (Mus musculus, UniProt Q7TQW3), sequence (Q7TQW3 1-310): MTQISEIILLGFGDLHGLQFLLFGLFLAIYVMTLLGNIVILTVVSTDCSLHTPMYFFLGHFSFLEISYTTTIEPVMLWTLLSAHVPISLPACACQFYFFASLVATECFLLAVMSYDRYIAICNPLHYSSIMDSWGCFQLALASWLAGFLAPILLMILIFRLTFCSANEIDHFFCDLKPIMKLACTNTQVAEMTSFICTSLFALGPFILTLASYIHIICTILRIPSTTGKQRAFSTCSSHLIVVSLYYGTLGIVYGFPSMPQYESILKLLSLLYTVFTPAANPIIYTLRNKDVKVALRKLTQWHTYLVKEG
# Text: as §7, §2, §4
# OR11A1 [18] = molecular target: T1, OR11A1; assay: Geonol concentration-dependent activation of OR11A1: OR-dependent cAMP accumulation in a cell-based assay (functional dose-response); parameters: expressed in transfected cells; host or cells: HEK293T; settings: agonist, human OR11A1 (SEQ ID NO: 12), HEK293T cells expressing Golf, FIG. 5
# Text: as §7, §2, §3
# Olfr1126 [19] = molecular target: Olfr1126 (Mus musculus, UniProt Q7TR49); assay: 3-hydroxy-3-methyl-hexanoic acid concentration-dependent activation of Olfr1126: OR-dependent cAMP accumulation in a cell-based assay (functional dose-response); settings: agonist, mouse Olfr1126 (SEQ ID NO: 46), N-terminal FLAG/Rho/Lucy tags, HEK 293T cells, Gαolf, FIG. 9
# Olfr1126 (Mus musculus, UniProt Q7TR49), sequence (Q7TR49 1-314): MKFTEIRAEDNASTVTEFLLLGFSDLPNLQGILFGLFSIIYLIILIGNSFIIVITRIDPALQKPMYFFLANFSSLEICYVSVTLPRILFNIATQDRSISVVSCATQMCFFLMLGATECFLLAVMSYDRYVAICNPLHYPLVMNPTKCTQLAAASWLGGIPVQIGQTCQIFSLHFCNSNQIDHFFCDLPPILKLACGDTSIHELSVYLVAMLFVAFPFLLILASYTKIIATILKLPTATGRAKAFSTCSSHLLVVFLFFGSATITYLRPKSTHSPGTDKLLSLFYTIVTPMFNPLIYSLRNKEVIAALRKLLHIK
# Text: (§8) The detection method pertains to OR-dependent accumulation of cAMP in said cells, as a result of OR activation by 3-hydroxy-3-methyl-hexanoic acid.
# as §2, §4
# Olfr1126 [20] = assay: Cell-based OR activation assay (cAMP accumulation); parameters: species or system mouse; settings: FIG. 9; OR-dependent accumulation of cAMP
# Text: as §8
# as §6, with “receptors. In a further embodiment, an RTP1 gene can also be expressed in the cell lines whether through activation of the endogenous RTP1 gene or through transformation.” for “receptors.”
compound,measurement,setting,value
"CC1CCCC2(C)CCCCC12O [geonol, (4S,4aS,8aR)-4,8a-Dimethyl-1,2,3,4,5,6,7,-octahydronaphthalen-4a-ol]",activation of Olfr96,Olfr96 [1],concentration-dependent and specific activation
same,activation of Olfr339,Olfr339 [2],concentration-dependent and specific activation
same,activation of Olfr1487,Olfr1487 [3],concentration-dependent and specific activation
same,activation of Olfr1322,Olfr1322 [4],concentration-dependent and specific activation
same,activation of OR11A1,OR11A1 [5],concentration-dependent and specific activation
CCCC(C)=CC(=O)O [3-methyl-2-hexenoic acid],EC50,OR51I2,13.9 µM
same,EC50,Olfr641 [6],1.75 µM
same,EC50,Olfr263 [7],183 µM
same,activation of Olfr263,Olfr263 [8],concentration-dependent and specific activation
same,activation of OR5112,OR5112,concentration-dependent and specific activation
same,activation of Olfr641,Olfr641 [9],concentration-dependent and specific activation
same,EC50,OR2W1 [10],214 µM
same,activation of OR2W1,OR2W1 [11],concentration-dependent and specific activation
"CCCC(C)(S)CCO (stereo not shown) [transpirol, 3-methyl-3-sulfanylhexanol]",activation of Olfr263,Olfr263 [8],concentration-dependent and specific activation
same,activation of Olfr46,Olfr46,concentration-dependent and specific activation
same,activation of OR2W1,OR2W1 [11],concentration-dependent and specific activation
C=CC(O)CCCCC (stereo not shown) [1-octen-3-ol],activation of Olfr93,Olfr93,concentration-dependent and specific activation
same,activation of Olfr398,Olfr398,concentration-dependent and specific activation
same,activation of Olfr120,Olfr120,concentration-dependent and specific activation
same,activation of Olfr1364,Olfr1364,concentration-dependent and specific activation
isobutylquinoline,% Inhibition,[12],45%
same,% Remaining in human sensory tests,human sensory panel,52* %
same,IC50,"[13]; 1-octen-3-ol at single activating concentration (EC50), receptor (OR2W1 or OR1A1) not stated per compound",> 600 µM
same,% Inhibition,"[13]; normalized to baseline agonist activity, 1-octen-3-ol at EC50",30.14%
"CC1CCCC2(C)CCCCC12O [Geonol, (4S,4aS,8aR)-4,8a-Dimethyl-1,2,3,4,5,6,7,-octahydronaphthalen-4a-ol]",EC50,Olfr96 [14],0.0168 µM
same,EC50,Olfr339 [15],1.28 µM
same,EC50,Olfr1487 [16],3.58 µM
same,EC50,Olfr1322 [17],37.5 µM
same,EC50,OR11A1 [18],2.8 µM
CCCC(C)(O)CC(=O)O (stereo not shown) [3-hydroxy-3-methyl-hexanoic acid],EC50,Olfr1126 [19],40.3 µM
same,activation of Olfr1126,Olfr1126 [20],concentration-dependent and specific activation
